From EP4467141A1, “PYRAZOLO-QUINOLINES AS SELECTIVE INHIBITORS OF GENOTOXIC STRESS-INDUCED IKK/NF- KB PATHWAYS FOR CANCER THERAPY” (Max-Delbrück-Centrum für Molekulare Medizin in der …, priority 2023, dated 2024)

Legend:
Test in all cases: Kinase panel study
Type in all cases: biochemical
Details in all cases: read-out: Percentage of inhibition; for inhibition at 1 µM: 1000nM; for inhibition at 10 µM: 10000nM
STK4 (MST1) = target: T1, STK4 (MST1) (Homo sapiens, UniProt Q13043)
T1 construct: purchased Thermo Fisher Scientific
T1 sequence (Q13043 1-487): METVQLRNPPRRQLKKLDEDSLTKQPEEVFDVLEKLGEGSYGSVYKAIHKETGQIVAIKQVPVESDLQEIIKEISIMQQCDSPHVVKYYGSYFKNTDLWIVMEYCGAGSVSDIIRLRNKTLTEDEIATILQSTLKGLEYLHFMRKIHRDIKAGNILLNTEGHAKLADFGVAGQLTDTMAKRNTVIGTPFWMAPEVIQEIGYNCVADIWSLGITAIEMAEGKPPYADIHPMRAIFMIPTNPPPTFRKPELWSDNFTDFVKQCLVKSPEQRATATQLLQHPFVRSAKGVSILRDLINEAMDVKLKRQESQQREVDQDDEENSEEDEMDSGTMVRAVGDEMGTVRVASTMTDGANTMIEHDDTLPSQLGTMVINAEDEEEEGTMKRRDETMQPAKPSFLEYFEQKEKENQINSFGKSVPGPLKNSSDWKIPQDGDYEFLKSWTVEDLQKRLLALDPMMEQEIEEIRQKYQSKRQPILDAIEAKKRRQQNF
Summary of the method: (§1)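 A commercial kinase profiling service ran the assays according to its ZLyte or Adapta standard protocols. Compound was present at 10 µM or 1 µM, and kinase activity loss was expressed as percent inhibition.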

EGFR (ErbB1) T790M L858R = target: T2, EGFR (ErbB1) T790M L858R (Homo sapiens, UniProt P00533, L858R/T790M)
T2 construct: purchased Thermo Fisher Scientific
Summary of the method: as §1

AURKB (Aurora B) = target: T3, AURKB (Aurora B) (Homo sapiens, UniProt Q96GD4)
T3 construct: purchased Thermo Fisher Scientific
T3 sequence (Q96GD4 whole entry): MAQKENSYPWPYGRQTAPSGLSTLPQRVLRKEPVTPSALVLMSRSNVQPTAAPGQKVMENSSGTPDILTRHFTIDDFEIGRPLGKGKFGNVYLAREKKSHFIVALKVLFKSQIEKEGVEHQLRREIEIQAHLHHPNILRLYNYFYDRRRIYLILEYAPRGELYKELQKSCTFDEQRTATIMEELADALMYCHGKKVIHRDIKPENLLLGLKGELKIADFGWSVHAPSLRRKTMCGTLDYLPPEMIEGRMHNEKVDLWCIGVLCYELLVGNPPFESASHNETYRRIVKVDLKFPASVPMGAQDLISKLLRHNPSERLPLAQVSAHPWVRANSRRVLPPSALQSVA
Summary of the method: as §1

SRPK1 = target: T4, SRPK1 (Homo sapiens, UniProt Q96SB4)
T4 construct: purchased Thermo Fisher Scientific
T4 sequence (Q96SB4 whole entry): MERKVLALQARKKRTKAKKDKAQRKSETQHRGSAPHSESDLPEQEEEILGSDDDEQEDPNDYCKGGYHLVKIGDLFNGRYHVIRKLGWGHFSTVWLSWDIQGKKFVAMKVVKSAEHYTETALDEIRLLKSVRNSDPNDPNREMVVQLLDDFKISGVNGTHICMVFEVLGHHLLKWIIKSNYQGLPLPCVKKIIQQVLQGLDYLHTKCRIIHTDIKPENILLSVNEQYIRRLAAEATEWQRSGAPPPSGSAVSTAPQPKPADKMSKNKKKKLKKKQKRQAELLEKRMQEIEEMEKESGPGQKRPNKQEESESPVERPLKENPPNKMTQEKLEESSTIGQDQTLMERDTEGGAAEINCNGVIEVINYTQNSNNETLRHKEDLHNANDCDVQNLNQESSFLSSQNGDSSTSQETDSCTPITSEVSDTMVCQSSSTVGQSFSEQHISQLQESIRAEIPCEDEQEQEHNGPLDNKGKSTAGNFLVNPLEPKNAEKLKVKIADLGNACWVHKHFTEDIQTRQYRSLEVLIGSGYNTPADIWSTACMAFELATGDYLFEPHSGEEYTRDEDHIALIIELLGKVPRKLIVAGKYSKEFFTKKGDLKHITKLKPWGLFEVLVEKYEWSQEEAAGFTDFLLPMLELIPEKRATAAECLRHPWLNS
Summary of the method: as §1

MAPK7 (ERK5) = target: T5, MAPK7 (ERK5) (Homo sapiens, UniProt Q13164)
T5 construct: purchased Thermo Fisher Scientific
T5 sequence (Q13164 whole entry): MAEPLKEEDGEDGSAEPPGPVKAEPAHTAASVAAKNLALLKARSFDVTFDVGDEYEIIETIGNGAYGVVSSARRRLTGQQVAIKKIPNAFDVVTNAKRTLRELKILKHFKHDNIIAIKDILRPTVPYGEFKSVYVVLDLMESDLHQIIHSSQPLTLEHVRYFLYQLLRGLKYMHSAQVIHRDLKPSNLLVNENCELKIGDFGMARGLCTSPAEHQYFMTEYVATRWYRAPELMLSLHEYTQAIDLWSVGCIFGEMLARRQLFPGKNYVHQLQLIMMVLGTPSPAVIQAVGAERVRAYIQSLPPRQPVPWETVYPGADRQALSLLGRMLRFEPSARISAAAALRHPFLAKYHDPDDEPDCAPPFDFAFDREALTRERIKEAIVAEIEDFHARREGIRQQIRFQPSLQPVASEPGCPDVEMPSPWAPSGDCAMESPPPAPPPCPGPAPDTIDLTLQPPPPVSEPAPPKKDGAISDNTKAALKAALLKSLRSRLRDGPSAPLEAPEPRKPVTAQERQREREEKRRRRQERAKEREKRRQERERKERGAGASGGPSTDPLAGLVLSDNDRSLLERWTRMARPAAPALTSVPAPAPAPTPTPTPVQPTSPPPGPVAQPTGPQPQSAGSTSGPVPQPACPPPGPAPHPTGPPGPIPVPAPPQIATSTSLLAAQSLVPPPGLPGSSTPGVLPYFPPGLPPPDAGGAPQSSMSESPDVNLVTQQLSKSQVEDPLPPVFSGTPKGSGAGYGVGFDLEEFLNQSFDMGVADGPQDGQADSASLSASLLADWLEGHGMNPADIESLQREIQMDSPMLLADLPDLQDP
Summary of the method: as §1

LYN A = target: T6, LYN A (Homo sapiens, UniProt P07948)
T6 construct: purchased Thermo Fisher Scientific
T6 sequence (P07948 whole entry): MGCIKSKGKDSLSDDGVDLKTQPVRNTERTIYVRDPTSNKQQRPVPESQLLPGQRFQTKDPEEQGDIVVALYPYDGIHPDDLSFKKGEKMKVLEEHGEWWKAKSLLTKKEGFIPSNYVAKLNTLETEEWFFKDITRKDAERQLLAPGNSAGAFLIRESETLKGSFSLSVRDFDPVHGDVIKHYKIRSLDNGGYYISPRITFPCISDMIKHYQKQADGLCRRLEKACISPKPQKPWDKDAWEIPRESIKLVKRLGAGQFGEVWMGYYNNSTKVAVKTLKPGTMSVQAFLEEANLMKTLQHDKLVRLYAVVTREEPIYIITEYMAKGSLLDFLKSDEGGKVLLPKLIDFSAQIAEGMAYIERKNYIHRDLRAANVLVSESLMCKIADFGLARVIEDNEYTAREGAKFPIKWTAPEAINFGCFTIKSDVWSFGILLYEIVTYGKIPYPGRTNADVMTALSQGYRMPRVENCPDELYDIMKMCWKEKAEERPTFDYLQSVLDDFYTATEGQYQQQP
Summary of the method: as §1

PRKCB2 (PKC beta II) = target: T7, PRKCB2 (PKC beta II) (Homo sapiens, UniProt P05771)
T7 construct: purchased Thermo Fisher Scientific
T7 sequence (P05771 1-673 isoform P05771-2): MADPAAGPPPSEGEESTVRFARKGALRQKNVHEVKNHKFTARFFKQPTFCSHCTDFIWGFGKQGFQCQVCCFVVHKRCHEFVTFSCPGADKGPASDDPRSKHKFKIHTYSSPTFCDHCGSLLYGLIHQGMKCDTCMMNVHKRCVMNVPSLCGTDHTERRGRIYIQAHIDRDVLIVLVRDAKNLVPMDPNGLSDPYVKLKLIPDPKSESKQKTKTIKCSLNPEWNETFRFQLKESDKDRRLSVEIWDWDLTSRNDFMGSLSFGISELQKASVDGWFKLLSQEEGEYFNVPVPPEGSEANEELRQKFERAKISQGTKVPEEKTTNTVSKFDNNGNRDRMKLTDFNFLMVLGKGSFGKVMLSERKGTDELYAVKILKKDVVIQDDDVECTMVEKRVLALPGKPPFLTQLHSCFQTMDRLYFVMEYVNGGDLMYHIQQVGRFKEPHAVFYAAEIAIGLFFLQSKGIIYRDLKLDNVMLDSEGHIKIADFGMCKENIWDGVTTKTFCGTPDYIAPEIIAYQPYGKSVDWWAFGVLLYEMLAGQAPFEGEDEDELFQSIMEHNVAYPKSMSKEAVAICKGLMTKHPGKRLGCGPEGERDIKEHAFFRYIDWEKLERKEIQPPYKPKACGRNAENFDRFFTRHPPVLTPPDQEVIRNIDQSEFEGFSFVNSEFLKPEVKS
Summary of the method: as §1

CAMK2D (CaMKII delta) = target: T8, CAMK2D (CaMKII delta) (Homo sapiens, UniProt Q13557)
T8 construct: purchased Thermo Fisher Scientific
Summary of the method: as §1

ABL1 F317L = target: T9, ABL1 F317L (Homo sapiens, UniProt P00519, F317L)
T9 construct: purchased Thermo Fisher Scientific
Summary of the method: as §1

SRC N1 = target: T10, SRC N1 (Homo sapiens, UniProt P12931)
T10 construct: purchased Thermo Fisher Scientific
T10 sequence (P12931 1-542 isoform P12931-2): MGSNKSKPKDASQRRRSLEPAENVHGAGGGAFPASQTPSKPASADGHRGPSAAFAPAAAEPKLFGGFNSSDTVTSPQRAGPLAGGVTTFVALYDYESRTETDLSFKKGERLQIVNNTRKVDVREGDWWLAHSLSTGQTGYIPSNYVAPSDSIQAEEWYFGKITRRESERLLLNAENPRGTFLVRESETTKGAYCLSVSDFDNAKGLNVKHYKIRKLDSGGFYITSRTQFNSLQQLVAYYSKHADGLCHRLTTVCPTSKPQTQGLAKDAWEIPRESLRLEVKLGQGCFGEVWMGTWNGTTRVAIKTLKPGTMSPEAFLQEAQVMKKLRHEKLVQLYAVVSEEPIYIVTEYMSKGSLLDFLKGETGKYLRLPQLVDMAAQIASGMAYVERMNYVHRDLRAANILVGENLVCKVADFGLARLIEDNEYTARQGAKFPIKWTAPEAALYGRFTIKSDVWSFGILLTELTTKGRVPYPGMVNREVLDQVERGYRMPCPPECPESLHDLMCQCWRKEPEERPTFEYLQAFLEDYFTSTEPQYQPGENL
Summary of the method: as §1

CSNK1A1L = target: T11, CSNK1A1L (Homo sapiens, UniProt Q8N752)
T11 construct: purchased Thermo Fisher Scientific
T11 sequence (Q8N752 1-337): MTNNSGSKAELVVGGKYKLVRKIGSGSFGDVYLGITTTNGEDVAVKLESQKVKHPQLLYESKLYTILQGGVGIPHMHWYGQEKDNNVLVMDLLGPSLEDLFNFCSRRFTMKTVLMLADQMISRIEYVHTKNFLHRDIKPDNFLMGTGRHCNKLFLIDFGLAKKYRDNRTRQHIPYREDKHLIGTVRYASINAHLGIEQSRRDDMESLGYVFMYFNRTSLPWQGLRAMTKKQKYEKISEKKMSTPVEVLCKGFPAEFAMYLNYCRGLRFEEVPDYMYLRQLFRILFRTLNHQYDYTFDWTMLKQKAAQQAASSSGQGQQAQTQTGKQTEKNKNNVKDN
Summary of the method: as §1

RET A883F = target: T12, RET A883F (Homo sapiens, UniProt P07949, A883F)
T12 construct: purchased Thermo Fisher Scientific
T12 sequence (P07949 29-1114 A883F): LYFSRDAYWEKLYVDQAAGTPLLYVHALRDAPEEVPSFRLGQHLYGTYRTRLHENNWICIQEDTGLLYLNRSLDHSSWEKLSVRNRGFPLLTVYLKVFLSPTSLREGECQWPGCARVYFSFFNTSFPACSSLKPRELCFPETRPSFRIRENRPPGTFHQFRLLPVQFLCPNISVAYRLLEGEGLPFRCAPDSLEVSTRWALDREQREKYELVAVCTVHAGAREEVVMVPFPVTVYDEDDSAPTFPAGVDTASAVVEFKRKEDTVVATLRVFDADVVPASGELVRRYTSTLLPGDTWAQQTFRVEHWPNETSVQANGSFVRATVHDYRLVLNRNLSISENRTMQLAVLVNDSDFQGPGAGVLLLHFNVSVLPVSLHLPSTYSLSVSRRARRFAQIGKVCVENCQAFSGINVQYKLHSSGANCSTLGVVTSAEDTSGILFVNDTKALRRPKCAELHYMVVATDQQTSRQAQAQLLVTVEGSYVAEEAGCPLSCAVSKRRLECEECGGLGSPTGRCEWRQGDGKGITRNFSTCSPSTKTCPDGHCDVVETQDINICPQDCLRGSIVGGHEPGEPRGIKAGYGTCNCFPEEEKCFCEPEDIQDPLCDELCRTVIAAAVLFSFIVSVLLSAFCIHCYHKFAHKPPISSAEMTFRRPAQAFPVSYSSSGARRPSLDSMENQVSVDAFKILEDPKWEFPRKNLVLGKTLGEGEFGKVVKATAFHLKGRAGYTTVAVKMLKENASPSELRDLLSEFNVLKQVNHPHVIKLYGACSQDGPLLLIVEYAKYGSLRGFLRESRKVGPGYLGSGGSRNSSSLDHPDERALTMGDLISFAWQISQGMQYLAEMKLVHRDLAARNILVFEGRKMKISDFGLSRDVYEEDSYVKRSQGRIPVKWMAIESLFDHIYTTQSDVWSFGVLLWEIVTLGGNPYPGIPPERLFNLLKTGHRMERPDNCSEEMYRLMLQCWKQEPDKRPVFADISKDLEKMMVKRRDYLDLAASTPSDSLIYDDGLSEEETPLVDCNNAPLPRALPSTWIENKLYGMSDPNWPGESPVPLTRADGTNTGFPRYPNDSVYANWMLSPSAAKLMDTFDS
Summary of the method: as §1

RET V804L = target: T13, RET V804L (Homo sapiens, UniProt P07949, V804L)
T13 construct: purchased Thermo Fisher Scientific
T13 sequence (P07949 29-1114 V804L): as the sequence (P07949 29-1114 A883F) above, with V776L, F855A counted along it
Summary of the method: as §1

COc1ccc2c(c1OC)c(=O)n1c3ccc(O)cc3c3ccnc2c31 [MW01, 5-Hydroxy-10,11-dimethoxy-9H-benzo[c]indolo[3,2,1-ij][1,5]naphthyridin-9-one]
inhibition at 1 µM (STK4 (MST1)): 4% | inhibition at 10 µM (STK4 (MST1)): 11% | inhibition at 1 µM (EGFR (ErbB1) T790M L858R): 9% | inhibition at 10 µM (EGFR (ErbB1) T790M L858R): 29% | inhibition at 1 µM (AURKB (Aurora B)): 15% | inhibition at 10 µM (AURKB (Aurora B)): 19% | inhibition at 1 µM (SRPK1): 12% | inhibition at 10 µM (SRPK1): 15% | inhibition at 1 µM (MAPK7 (ERK5)): 9% | inhibition at 10 µM (MAPK7 (ERK5)): 1% | inhibition at 1 µM (LYN A): 5% | inhibition at 10 µM (LYN A): 18% | inhibition at 1 µM (PRKCB2 (PKC beta II)): 11% | inhibition at 10 µM (PRKCB2 (PKC beta II)): 14% | inhibition at 1 µM (CAMK2D (CaMKII delta)): 13% | inhibition at 10 µM (CAMK2D (CaMKII delta)): 60% | inhibition at 1 µM (ABL1 F317L): 8% | inhibition at 10 µM (ABL1 F317L): 13% | inhibition at 1 µM (SRC N1): 15% | inhibition at 10 µM (SRC N1): 25% | inhibition at 1 µM (CSNK1A1L): 1% | inhibition at 10 µM (CSNK1A1L): 11% | inhibition at 1 µM (RET A883F): 10% | inhibition at 10 µM (RET A883F): 24% | inhibition at 1 µM (RET V804L): 15% | inhibition at 10 µM (RET V804L): 38%

COc1ccc2cc3c(N)nn(C(=O)c4cccc(N(C)C)c4)c3nc2c1 [MW05, (3-Amino-7-methoxypyrazolo[3,4-b]quinolin-1-yl)-[3-(dimethylamino)phenyl]methanone]
inhibition at 1 µM (STK4 (MST1)): 4% | inhibition at 10 µM (STK4 (MST1)): 3% | inhibition at 1 µM (EGFR (ErbB1) T790M L858R): -5% | inhibition at 10 µM (EGFR (ErbB1) T790M L858R): 10% | inhibition at 1 µM (AURKB (Aurora B)): 8% | inhibition at 10 µM (AURKB (Aurora B)): -6% | inhibition at 1 µM (SRPK1): 8% | inhibition at 10 µM (SRPK1): 10% | inhibition at 1 µM (MAPK7 (ERK5)): 2% | inhibition at 10 µM (MAPK7 (ERK5)): -7% | inhibition at 1 µM (LYN A): 1% | inhibition at 10 µM (LYN A): -6% | inhibition at 1 µM (PRKCB2 (PKC beta II)): 9% | inhibition at 10 µM (PRKCB2 (PKC beta II)): -5% | inhibition at 1 µM (CAMK2D (CaMKII delta)): 3% | inhibition at 10 µM (CAMK2D (CaMKII delta)): 13% | inhibition at 1 µM (ABL1 F317L): 6% | inhibition at 10 µM (ABL1 F317L): 4% | inhibition at 1 µM (SRC N1): 16% | inhibition at 10 µM (SRC N1): 14% | inhibition at 1 µM (CSNK1A1L): 1% | inhibition at 10 µM (CSNK1A1L): 1% | inhibition at 1 µM (RET A883F): 7% | inhibition at 10 µM (RET A883F): 3% | inhibition at 1 µM (RET V804L): 2% | inhibition at 10 µM (RET V804L): 0%
